According to patent US20060046968A1, “Prodrug substituted benzoxazoles as estrogenic agents” (priority 2004, published 2006):

Key:
[1] = system: human endometrial tissue implanted into ovariectomized athymic nude mice; assay: Endometriosis test procedure: human endometrial tissue implanted into nude mice; type: in vivo, mouse
Method: This procedure is slightly modified from a published method [Bruner-Tran. et al., Journal of Clinical Investigation 99: 2851-2857 (1997)]. […] Lesions are allowed to establish for at least 10 days, then oral daily dosing begins and continues for at least 15 days. It should be noted that all mice have visible lesions at the start of dosing. At necropsy, the number of mice with lesions is determined, as well as the lesions per mouse.

Lewis rats [2] = assay: Lewis rat adjuvant-induced arthritis, treatment protocol: tarsal joint histology (synovitis, Mankin); type: in vivo; conditions: 50 mg/kg, tarsal joints
Lewis rats [3] = assay: Lewis rat adjuvant-induced arthritis, treatment protocol: joint score (maximal score per day 12); type: in vivo; conditions: s.c. daily, begun Day 8 after adjuvant
[4] = Microsomal incubation in the presence of UDPGA (glucuronidation); type: in vitro ADME, rat; conditions: 100 μM, 37° C., 60 mins, with UDPGA
Method: An analytical scale incubation of ERB-041 with male SD rat liver microsomes in the presence of UDPGA was conducted in phosphate buffer (0.1 M, pH 7.4) containing 1 mg/mL rat liver microsomal protein with final concentrations of 5 mM magnesium chloride and 4 mM UDPGA. This pilot incubation (1.0 mL incubation volume) was conducted using a substrate concentration of 100 μM at 37° C. for 60 mins. Incubations were terminated by the addition of an equal volume of chilled acetonitrile. Large-scale incubations (a total of 37 incubations @ 5.0 mL incubation volume) to generate sufficient quantities of the glucuronide metabolites for structure elucidation were subsequently conducted as described above at 37° C. for 60 mins. Appropriate substrate controls and incubations without addition of UDPGA were also carried out. Reserved phase-HPLC was utilized for all metabolite analysis. To confirm the formation of glucuronide and sulfate conjugates of ERB-041 in pilot scale incubations, HPLC analysis was performed using an Agilent 1100 LC system equipped with a diode array detector (Agilent Technologies, Wilmington, Del.). […] Separation of the two metabolites was achieved using gradient solvent system B as described supra.

Question: With C=Cc1cc(O)cc2nc(-c3ccc(O)c(F)c3)oc12 [Example 24, 2-(3-FLUORO-4-HYDROXYPH ENYL)-7-VI NYL-1,3-BENZOXAZOL-5-OL] as the compound, how does the “lesions at necropsy versus vehicle” value ([1]; 10 mg/kg, evaluated three times) read?
Answer: Its value is “fewer lesions at necropsy than those mice dosed with vehicle”.

Question: What about the “lesions found per animal” value ([1]; Study 1, 10 mg/kg oral daily) of the same compound?
Answer: The value was “one lesion”.

Question: What about the “mice with lesion regression” value ([1]; Study 1, 10 mg/kg oral daily) of the same compound?
Answer: Its value is “four of six mice”.

Question: And the “mice with any lesions at necropsy” value ([1]; Study 1, 10 mg/kg oral daily, vehicle: four of four mice)?
Answer: Its value is “two of six mice”.

Question: What about the “Cartilage Cells (0-3), mean ± SD” value (Lewis rats [2]) of the same compound?
Answer: Its value is 0.83 ± 0.75.

Question: What about the “Cartilage Structure (0-6), mean ± SD” value (Lewis rats [2]) of the same compound?
Answer: The value was 1.58 ± 0.49.

Question: And the “Fibroplasia (0-3), mean ± SD” value (Lewis rats [2])?
Answer: The value was 0.42 ± 0.80.

Question: And the “Inflammatory Cells (0-3), mean ± SD” value (Lewis rats [2])?
Answer: The value was 1.33 ± 0.41.

Question: And the “Pannus (0-1), mean ± SD” value (Lewis rats [2])?
Answer: The value was 0.08 ± 0.20.

Question: And the “Saffranin-O/Fast Green Staining (0-4), mean ± SD” value (Lewis rats [2])?
Answer: The value was 1.25 ± 0.69.

Question: And the “Tidemark Integrity (0-1)” value (Lewis rats [2])?
Answer: The value was 0.

Question: And the “Total Mankin Score (0-14), mean ± SD” value (Lewis rats [2])?
Answer: Its value is 3.67 ± 1.86.

Question: And the “Total Synovitis Score (0-10), mean ± SD” value (Lewis rats [2])?
Answer: The value was 3.25 ± 1.54.

Question: What about the Joint inflammation score (Lewis rats [3]; table Day 1) of the same compound?
Answer: The Joint inflammation score was 11.33.

Question: And the Joint inflammation score (Lewis rats [3]; table Day 2)?
Answer: Its Joint inflammation score is 11.15.

Question: What about the Joint inflammation score (Lewis rats [3]; table Day 3) of the same compound?
Answer: The Joint inflammation score was 11.33.

Question: And the Joint inflammation score (Lewis rats [3]; table Day 4)?
Answer: Its Joint inflammation score is 9.50.

Question: And the Joint inflammation score (Lewis rats [3]; table Day 5)?
Answer: Its Joint inflammation score is 8.00.

Question: And the Joint inflammation score (Lewis rats [3]; table Day 6)?
Answer: Its Joint inflammation score is 7.00.

Question: And the Joint inflammation score (Lewis rats [3]; table Day 7)?
Answer: Its Joint inflammation score is 5.83.

Question: And the Joint inflammation score (Lewis rats [3]; table Day 8)?
Answer: Its Joint inflammation score is 4.83.

Question: What about the Joint inflammation score (Lewis rats [3]; table Day 9) of the same compound?
Answer: Its Joint inflammation score is 3.50.

Question: What about the Joint inflammation score (Lewis rats [3]; table Day 10) of the same compound?
Answer: The Joint inflammation score was 3.83.

Question: And the Joint inflammation score (Lewis rats [3]; table Day 11)?
Answer: Its Joint inflammation score is 3.83.

Question: And the Joint inflammation score (Lewis rats [3]; table Day 12)?
Answer: Its Joint inflammation score is 3.83.

Question: And the Joint inflammation score (Lewis rats [3]; table Day 13)?
Answer: The Joint inflammation score was 3.16.

Question: What about the Joint inflammation score (Lewis rats [3]; table Day 14) of the same compound?
Answer: Its Joint inflammation score is 3.16.

Question: What about the Joint inflammation score (Lewis rats [3]; table Day 15) of the same compound?
Answer: The Joint inflammation score was 2.83.

Question: What about the Joint inflammation score (Lewis rats [3]; table Day 16) of the same compound?
Answer: Its Joint inflammation score is 2.83.

Question: And the Joint inflammation score (Lewis rats [3]; table Day 17)?
Answer: Its Joint inflammation score is 2.00.

Question: What about the Metabolites detected [4] of the same compound?
Answer: Its Metabolites detected is “two major metabolites, M5 and M6, were detected”.
